From patent US6348454B1, “Syntheses of new isodethiaazacephems and isodethiaazacephams, and use as potent antibacterial agents” (National Science Council, priority 1999, dated 2002)
Converted amounts (≈) assume the structure as drawn. Where two headings read alike, the source gives them in different places.

Tests used:
[1] = test system: five pathogenic microorganisms; assay: Antibacterial activity in vitro, summary in words; format: cell-based; conditions: doses as high as 128 μg/mL; Table 1
Procedure: (§1) Antimicrob. Agents Chemother. 1978, 14, 807-811] penicillin G [Morris, J. J.; Page, M. I. Intra- and Intermolecular Catalysis in the Aminolysis of Benzylpenicillin. J. Chem. Soc., Perkin Trans 2 1980, 212-219], and 7-(β-phenylacetamido)-3′-desacetoxycephalosporanic acid (±)−2 [Page, M. L.; Proctor, P. Mechanism of β-Lactam Opening in Cephalosporins. J. Am. Chem. Soc. 1984, 106, 3820-3825] in vitro against five pathogenic microorganisms. The doses used were as high as 128 μg/mL.
(§2) The serial broth dilution method was used to study the antibiotic activity [Pursiano, T. A.; Misiek, M.; Leitner, F.; Price, K. E. Effect of Assay Medium on the Antibacterial Activity of Certain Penicillins and Cephalosporins. Antimicrob. Agents Chemother. 1973, 3, 33-39]. The inocula were prepared by use of the heart infusion broth (Difco Laboratories) to make 10^−4 dilutions of the overnight cultures. Tubes of the seeded antibiotic-containing media were incubated at 37° C. for 20 h. The lowest concentration of antibiotic that prevented visible growth of microorganisms was then determined.

E. coli ATCC 39188 = assay: Antibacterial activity, serial broth dilution method (MIC); format: cell-based; conditions: for MIC: Escherichia coli, read-out: Minimal Inhibitory Concentrations
Procedure: as §1, §2

Ps. aeruginosa 1101-75 = assay: as above; format: cell-based; conditions: for MIC: read-out: Minimal Inhibitory Concentrations
Procedure: as §1, §2

S. typhi O-901 = assay: as above; format: cell-based; conditions: 20 h; for Minimal Inhibitory Concentrations: S. typhi O-901, average of triplicate determinations, 37° C.; for MIC: Salmonella enterica, TYPHI, read-out: Minimal Inhibitory Concentrations
Procedure: as §1, §2

S. aureus FDA 209P = assay: as above; format: cell-based; conditions: 20 h; for MIC: Staphylococcus aureus, FDA209P, read-out: Minimal Inhibitory Concentrations
Procedure: as §1, §2

K. pneumoniae NCTC 418 = assay: as above; format: cell-based; conditions: for MIC: Klebsiella pneumoniae, read-out: Minimal Inhibitory Concentrations
Procedure: as §1, §2

[2] = Stability of β-lactams in water at various pH; conditions: for time within which β-lactam ring was destructed / time the β-lactam ring survived: pH 1.0; for time within which pH of the aqueous solution changed to ˜1 (destruction of β-lactam ring): initial pH about 4.0
Procedure: In another series of assays, we dissolved isodethiaazacephems (±)−3 and (±)−4 as well as isodethiaazacepham (±)−5 in distilled water (5.0 mg/mL).

[3] = E. coli ATCC 39188, average of triplicate determinations, 37° C., 20 h
[4] = Ps. aeruginosa 1101-75, average of triplicate determinations, 37° C., 20 h
[5] = S. aureus FDA 209P, average of triplicate determinations, 37° C.
[6] = K. pneumoniae NCTC 418, average of triplicate determinations, 37° C., 20 h
[7] = ATCC39188, E. coli ATCC 39188, average of triplicate determinations, 37° C., 20 h
[8] = Pseudomonas aeruginosa, 110175, 20 h
[9] = Pseudomonas aeruginosa, 110175, Ps. aeruginosa 1101-75, average of triplicate determinations, 37° C., 20 h
[10] = NCTC418, K. pneumoniae NCTC 418, average of triplicate determinations, 37° C., 20 h

Row | Compound | antibacterial activity (in words) [1] | Minimal Inhibitory Concentrations (E. coli ATCC 39188; [3]) [µg/mL] | Minimal Inhibitory Concentrations (S. typhi O-901) [µg/mL] | Minimal Inhibitory Concentrations (S. aureus FDA 209P; [5]) [µg/mL] | initial pH value of the aqueous solution ([2]; distilled water, 5.0 mg/mL) | MIC (E. coli ATCC 39188; [7]) [µg/mL] | MIC (Ps. aeruginosa 1101-75; [8]) [µg/mL] | MIC (S. typhi O-901) [µg/mL] | MIC (S. aureus FDA 209P; [5]) [µg/mL] | MIC (K. pneumoniae NCTC 418; NCTC418, 20 h) [µg/mL] | melting point [°C] | MIC (Ps. aeruginosa 1101-75; [9]) [µg/mL] | MIC (K. pneumoniae NCTC 418; [10]) [µg/mL] | other results
1 | (2RS,6RS,7SR)- and (2SR,6RS,7SR)-2-Methanesulfonyl-3,8-dioxo-7-(phenylacetamido)-1,4-diazabicyclo[4.2.0]octane-2-carboxylic Acid [(±)-5] | profound antibacterial activity | 97.17 | 65.30 | 48.50 | about 2.0 |  |  |  |  |  |  |  |  | Minimal Inhibitory Concentrations (Ps. aeruginosa 1101-75; [4]): 120.0 µg/mL; Minimal Inhibitory Concentrations (K. pneumoniae NCTC 418; [6]): 51.02 µg/mL; time within which β-lactam ring was destructed ([2]; acidic solution): ≤ 3 h; time of decarboxylation ([2]; basic solution, pH 12): ≤ 20 min; time within which pH of aqueous solution changed from 2.0 to 6.0 (decarboxylation to (±)−17) ([2]; distilled water, 5.0 mg/mL): 5-6 days
2 | O=C(Cc1ccccc1)N[C@@H]1C(=O)N2C(C(=O)O)=C(O)NC[C@H]12 (racemic) [(±)-10, (6RS,7SR)-3-Hydroxy-8-oxo-7-(phenylacetamido)-1,4-diazabicyclo[4.2.0]-oct-2-ene-2-carboxylic Acid] |  |  |  |  |  | 94.7 (≈ 298 µM) | > 128 | > 128 | 29.5 (≈ 93 µM) | > 128 | 140 to 142 |  |  | time stable in phosphate buffer ([2]; phosphate buffer (0.10 M, pH 6.8)): two; solubility (physchem; pH 6.8, aqueous buffer): 35 mg/mL (≈ 110000 µM)
3 | CS(=O)(=O)OC1=C(C(=O)O)N2C(=O)[C@@H](NC(=O)Cc3ccccc3)[C@H]2CN1 (racemic) [(±)-3, (6RS,7SR)-3-Methanesulfonyloxy-8-oxo-7-(phenylacetamido)-1,4-diazabicyclo[4.2.0]oct-2-ene-2-carboxylic Acid] | promising antimicrobial activities |  |  |  | about 4.0 | 0.95 (≈ 2.4 µM) |  | 1.2 (≈ 3.03 µM) | 0.07 (≈ 0.177 µM) |  | 115 to 117 | 4.38 (≈ 11.1 µM) | 0.68 (≈ 1.72 µM) | time within which pH of the aqueous solution changed to ˜1 (destruction of β-lactam ring) ([2]; distilled water, 5.0 mg/mL): three; time the β-lactam ring survived [2]: ~4 h; solubility (physchem; water): 21 mg/mL (≈ 53100 µM)
4 | CS(=O)(=O)OC1=C(C(=O)OCc2ccccc2)N2C(=O)[C@@H](NC(=O)Cc3ccccc3)[C@H]2CN1 (racemic) [(±)-11, Benzyl (6RS,7SR)-3-Methanesulfonyloxy-8-oxo-7-(phenylacetamido)-1,4-diazabicyclo[4.2.0]oct-2-ene-2-carboxylate] | do not exhibit antibacterial activity |  |  |  |  |  | > 128 | > 128 |  | > 128 |  |  |  | MIC (E. coli ATCC 39188; ATCC39188, 20 h): > 128 µg/mL; MIC (S. aureus FDA 209P): > 128 µg/mL
5 | CS(=O)(=O)C1=C(O)NC[C@@H]2[C@H](NC(=O)Cc3ccccc3)C(=O)N12 (racemic) [(±)-17, (6RS,7SR)-3-Hydroxy-8-oxo-7-(phenylacetamido)-1,4-diazabicyclo[4.2.0]oct-2-ene-2-methylsulfone] |  |  | >128 |  |  |  |  |  |  |  |  |  |  | time within which β-lactam ring was destructed [2]: two
6 | CO/N=C(\C(=O)N[C@@H]1C(=O)N2C(C(=O)O)=C(COC(C)=O)CS[C@H]12)c1csc(N)n1 [cefotaxime, reference compound] |  |  |  |  |  | 0.25 (≈ 0.549 µM) |  | 20.3 (≈ 44.6 µM) | 0.08 (≈ 0.176 µM) |  |  | 62.4 (≈ 137 µM) | 10.2 (≈ 22.5 µM) | 
7 | O=C(Cc1ccccc1)N[C@@H]1C(=O)N2C(C(=O)O)=C(OS(=O)(=O)C(F)(F)F)NC[C@H]12 (racemic) [(±)-4, (6RS,7SR)-3-Trifluoromethanesulfonyloxy-8-oxo-7-(phenylacetamido)-1,4-diazabicyclo[4.2.0]oct-2-ene-2-carboxylic Acid] | promising antimicrobial activities |  |  |  | about 4.0 | 0.09 (≈ 0.2 µM) |  | 0.68 (≈ 1.51 µM) | 0.01 (≈ 0.0223 µM) |  | 100 to 102 | 1.15 (≈ 2.56 µM) | 0.24 (≈ 0.534 µM) | time within which pH of the aqueous solution changed to ˜1 (destruction of β-lactam ring) ([2]; distilled water, 5.0 mg/mL): two; time the β-lactam ring survived [2]: ~2 h; solubility (physchem; water): 27 mg/mL (≈ 60100 µM)
8 | CC1(C)S[C@@H]2[C@H](NC(=O)Cc3ccccc3)C(=O)N2[C@H]1C(=O)O [penicillin G, reference compound] |  | 2.30 | >128 | 0.40 |  |  |  |  |  |  |  |  |  | 
9 | O=C(Cc1ccccc1)N[C@@H]1C(=O)N2C(C(=O)OCc3ccccc3)=C(OS(=O)(=O)C(F)(F)F)NC[C@H]12 (racemic) [(±)-12, Benzyl (6RS,7SR)-3-Trifluoromethanesulfonyloxy-8-oxo-7-(phenylacetamido)-1,4-diazabicyclo[4.2.0]oct-2-ene-2-carboxylate] | do not exhibit antibacterial activity |  |  |  |  |  | > 128 | > 128 |  | > 128 |  |  |  | MIC (E. coli ATCC 39188; ATCC39188, 20 h): > 128 µg/mL; MIC (S. aureus FDA 209P): > 128 µg/mL
10 | CC1=C(C(=O)O)N2C(=O)C(NC(=O)Cc3ccccc3)C2SC1 (single isomer, unassigned; (+)) [(+)-2, 7-(β-phenylacetamido)-3′-desacetoxycephalosporanic acid, reference compound] |  | 13.13 | 24.50 | 0.64 |  |  |  |  |  |  |  |  |  | Minimal Inhibitory Concentrations (Ps. aeruginosa 1101-75; [4]): 100.0 µg/mL; Minimal Inhibitory Concentrations (K. pneumoniae NCTC 418; [6]): 2.98 µg/mL
